# Measured values as given in paper PMC12040169 (PLOS Biology, 2025).
# Assay: in vitro
# Details: human, hela cells, % viability
structure (smiles),measurement,setting,value
CC(C)S(=O)(=O)n1c(=O)n(Cc2ccc(S(C)(=O)=O)cc2)c2ccccc21 [CBK106529],"viability at 28.5 h, 10 µM",,90.3%
Cc1ccc(N(CC(=O)Nc2ccccc2C(N)=O)S(=O)(=O)c2ccccc2)cc1C [CBK265246],"viability at 28.5 h, 10 µM",,94.4%
CCn1cnnc1C1CCN(C(=O)c2ccc(C)c(Cl)c2)CC1 [CBK303997],"viability at 28.5 h, 10 µM",,94.9%
CC(=O)NCCC(=O)Nc1cc(C)ccc1C [CBK306115],"viability at 28.5 h, 10 µM",,96.6%
O=C(NCC1CCCCC1)C1(Cc2cccc(-c3cccnc3)c2)CCOCC1 [CBK285607],"viability at 28.5 h, 10 µM",,97.5%
C[C@]12CN(Cc3ccc(F)cc3)C[C@H]1NC(=O)c1ccccc1C2=O [CBK284728],"viability at 28.5 h, 10 µM",,87.8%
Cc1cc(Cl)c(OCCN2CCC(C)CC2)c(Br)c1 [CBK265088G],"viability at 28.5 h, 10 µM",,78.3%
CCOC(=O)c1cnc2ccc(Br)cc2c1NCc1cccnc1 [CBK265030],"viability at 28.5 h, 10 µM",,83.5%
COCCNCc1ccc(OCc2ccccc2)cc1 [CBK270133C],"viability at 28.5 h, 10 µM",,91.1%
c1ccc2[nH]c(SCCN3CCOCC3)nc2c1 [CBK262593],"viability at 28.5 h, 10 µM",,89%
CC1CCc2c(sc3ncnc(OCC(=O)N(C)CCC#N)c23)C1 (stereo not shown) [CBK304976],"viability at 28.5 h, 10 µM",,89.8%
Fc1ccc(-c2cncc(NCCc3cccnc3)n2)cc1Cl [CBK065745],"viability at 28.5 h, 10 µM",,91.3%
O=C(O)Cn1cc(C(C(=O)O)N2CCN(c3ccccc3)CC2)c2ccccc21 (stereo not shown) [CBK286625],"viability at 28.5 h, 10 µM",,78.1%
COc1cccc(COc2cncc(Cl)n2)c1OC [CBK176057],"viability at 28.5 h, 10 µM",,86.3%
CCN(CC)C(=O)Cn1nc(C)n2c(cc3ccsc32)c1=O [CBK284104],"viability at 28.5 h, 10 µM",,97.3%
FC(F)(F)c1ccnc(Sc2cccc(Cl)c2)c1 [CBK115234],"viability at 28.5 h, 10 µM",,94.8%
COc1cccc(N(CC(=O)Nc2ccc(C)c(C)c2)S(=O)(=O)c2ccc(C)cc2)c1 [CBK263761],"viability at 28.5 h, 10 µM",,103%
O=C1CCCN1C(=O)CN1CCOCC1 [CBK261467],"viability at 28.5 h, 10 µM",,117%
Cc1ccc(-c2ccccc2CC2(C(=O)Nc3cccc(C(N)=O)c3)CCOCC2)c(C)c1 [CBK286423],"viability at 28.5 h, 10 µM",,92.7%
O=C(Nc1cccc2[nH]ccc12)c1ccc(Cl)cc1 [CBK159632],"viability at 28.5 h, 10 µM",,91.7%
CCN1CCN(C(=O)C2CC=CCC2C(=O)O)CC1 (stereo not shown) [CBK270295],"viability at 28.5 h, 10 µM",,91.6%
CCNC(=O)N1CC2(CCN(CCc3cccc4ccccc34)CC2)c2ccccc21 [CBK136965],"viability at 28.5 h, 10 µM",,94.7%
O=C1CSC2(CCCCC2)N1Nc1ccccc1 [CBK020047],"viability at 28.5 h, 10 µM",,101%
CNC1CCC2(c3ccc(OC)c(OC)c3)CCN(C)C2C1 (stereo not shown) [CBK059586C],"viability at 28.5 h, 10 µM",,87.3%
O=C(c1nccs1)C1CCN(C(=O)c2cccs2)CC1 [CBK284159],"viability at 28.5 h, 10 µM",,106%
Cc1cc(C)n2c(SCc3ccccc3)nnc2n1 [CBK025780],"viability at 28.5 h, 10 µM",,82%
O=C(O)c1ccc(S(=O)(=O)NCC2CCCO2)cc1 (stereo not shown) [CBK262364],"viability at 28.5 h, 10 µM",,79.8%
Nc1nc2c(O)cccc2s1 [CBK003892B],"viability at 28.5 h, 10 µM",,85.6%
Cc1ccccc1N1CCN(Cc2cccc(C(=O)O)c2)CC1 [CBK286890],"viability at 28.5 h, 10 µM",,90.8%
CC1=CCC2C(=O)N(C(CC(C)C)C(=O)O)C(=O)C2C1 (stereo not shown) [CBK287172],"viability at 28.5 h, 10 µM",,94.6%
COc1cc(CNc2ccc3[nH]c(=O)[nH]c3c2)cc(Br)c1OCC(=O)NC(C)(C)C [CBK266596],"viability at 28.5 h, 10 µM",,57%
CCc1n[nH]c(C2CN(Cc3nc4c(F)cccc4[nH]3)CCO2)n1 (stereo not shown) [CBK304117],"viability at 28.5 h, 10 µM",,90.9%
CSc1ncc(CNC(=O)CC2CCc3ccccc32)n1C (stereo not shown) [CBK307450],"viability at 28.5 h, 10 µM",,85.9%
Cc1ccc(SCc2ccc(C(=O)Nc3ccccc3C(=O)N3CCCC3)cc2)cc1 [CBK268217],"viability at 28.5 h, 10 µM",,112%
Fc1ccccc1CN(CCCn1ccnc1)Cc1ccoc1 [CBK283024],"viability at 28.5 h, 10 µM",,89.9%
C[C@@H]1CN(C(=O)c2ccc3[nH]nnc3c2)C[C@H](C)O1 [CBK200369],"viability at 28.5 h, 10 µM",,104%
COCCn1nnnc1C(c1cc2cc(C)cc(C)c2[nH]c1=O)N1CCOCC1 (stereo not shown) [CBK068815],"viability at 28.5 h, 10 µM",,95.3%
CCn1ncc(S(=O)(=O)N2CCCC(c3ccccc3)C2)c1C (stereo not shown) [CBK282760],"viability at 28.5 h, 10 µM",,100%
O=C(c1cc(F)c(F)cc1F)N1CCC2(CCCNC2)C1 (stereo not shown) [CBK137068T],"viability at 28.5 h, 10 µM",,87%
CC(=O)C(Sc1nc(NC(C)C)nc(N(C)C)n1)C(C)=O [CBK269811],"viability at 28.5 h, 10 µM",,90.8%
CC(C)(C)OC(=O)N1CCC(C2OCc3cc(C(=O)N4CCNC(=O)C4)ccc3O2)CC1 (stereo not shown) [CBK173277],"viability at 28.5 h, 10 µM",,105%
CCOCC1CCN(C(=O)c2ncsc2Nc2ccccc2)C1 (stereo not shown) [CBK304204],"viability at 28.5 h, 10 µM",,117%
CCOc1ccc(-c2cnc(SCC(=O)O)nc2N)cc1 [CBK269928],"viability at 28.5 h, 10 µM",,105%
N#CCCCN1CCC(Oc2nccnc2OCc2cccc(Br)c2)CC1 [CBK153631],"viability at 28.5 h, 10 µM",,99.1%
COC(=O)c1sc(-c2ccsc2)cc1N [CBK006256],"viability at 28.5 h, 10 µM",,91.8%
Nc1cccc(Oc2ccc3c(c2)C(=O)N(CCC(=O)O)C3=O)c1 [CBK287186],"viability at 28.5 h, 10 µM",,94.1%
NC(=O)CCNC(=O)c1ccc2[nH]ccc2c1 [CBK149082],"viability at 28.5 h, 10 µM",,102%
COc1ccc(-c2nc(NC(=O)c3ccccn3)cnc2-c2cccc(C(F)(F)F)c2)cc1 [CBK036785],"viability at 28.5 h, 10 µM",,110%
Cc1ccc(S(=O)(=O)NCCSCc2ccc(Cl)c(Cl)c2)cc1[N+](=O)[O-] [CBK264675],"viability at 28.5 h, 10 µM",,99.9%
CC(C)c1cc(C(=O)N[C@@H]2CCOC[C@H]2Oc2ccc(CO)cc2)on1 [CBK306554],"viability at 28.5 h, 10 µM",,101%
CCC(O)CNS(=O)(=O)c1ccc(C(C)C)cc1 (stereo not shown) [CBK043543],"viability at 28.5 h, 10 µM",,91.6%
Cc1nnc(NC(=O)C2CCN(C(=O)c3cccc(F)c3)CC2)s1 [CBK307588],"viability at 28.5 h, 10 µM",,93.2%
CCCCN=C(NCCCn1cccn1)N1CCCN(C(C)=O)CC1 [CBK304273I],"viability at 28.5 h, 10 µM",,107%
CC/C(=C/c1sc2ccc3ccccc3c2[n+]1CCCS(=O)(=O)[O-])SC [CBK260901],"viability at 28.5 h, 10 µM",,104%
O=C(Nc1ccc2nc(CN3CCOCC3)[nH]c2c1)C1CCCCC1 [CBK305728],"viability at 28.5 h, 10 µM",,80.5%
O=C(Nc1ccc2oc(-c3cccnc3)nc2c1)c1sc2cc(Cl)ccc2c1Cl [CBK267876],"viability at 28.5 h, 10 µM",,97.4%
N#C/C(=C/c1ccc(OCc2ccc(C(=O)O)cc2)cc1)C(=O)Nc1ccc(Cl)cc1 [CBK263187],"viability at 28.5 h, 10 µM",,98.2%
COc1cccc2c1OC1(CCN(C(=O)c3cccnc3)CC1)OC2 [CBK061070],"viability at 28.5 h, 10 µM","bulk resorufin, single well",95.7%
CC(C)(C)CC(C)(C)N=C(S)Nc1ccc2nc(-c3ccccn3)c(-c3ccccn3)nc2c1 [CBK265118],"viability at 28.5 h, 10 µM",,91%
CC1(C)CC(O[Si](C)(C)OC2CC(C)(C)NC(C)(C)C2)CC(C)(C)N1 [CBK261942],"viability at 28.5 h, 10 µM",,99.3%
O=[N+]([O-])c1ccc(OCCCNCCO)cc1 [CBK262244],"viability at 28.5 h, 10 µM",,92.3%
CCCNC(=O)Cn1nc(-c2cc3c(s2)CCC3)oc1=O [CBK284713],"viability at 28.5 h, 10 µM",,95.2%
CCC(C)Oc1ccccc1OCCN1C(=O)NC(C)(C)C1=O (stereo not shown) [CBK267362],"viability at 28.5 h, 10 µM",,98.5%
Cc1ccc([N+](=O)[O-])cc1NC(=O)CCn1cnc2ccccc2c1=O [CBK267644],"viability at 28.5 h, 10 µM",,106%
COc1cc(C)c(S(=O)(=O)Nc2ccc(CC(=O)O)cc2)cc1C [CBK299782],"viability at 28.5 h, 10 µM",,101%
CCCC(=O)c1ccc(S(=O)(=O)N2CCCN(Cc3ccc(F)c(C#N)c3)CC2)cc1 [CBK062910],"viability at 28.5 h, 10 µM",,114%
CN1CCN(c2nc(NCCNc3ccc([N+](=O)[O-])cc3)c3ccccc3n2)CC1 [CBK266949],"viability at 28.5 h, 10 µM",,77.5%
C[C@H](Nc1cncc(-c2ccc3c(c2)OCO3)n1)c1ccccc1 [CBK065962],"viability at 28.5 h, 10 µM",,90.3%
CN(C)CCCNC(=O)C1CCN(c2nc3c(-c4ccccc4F)csc3c(=O)[nH]2)CC1 [CBK215438],"viability at 28.5 h, 10 µM",,93.7%
FC(F)(F)c1cccc(SCc2ccc(Cl)cc2)n1 [CBK107197],"viability at 28.5 h, 10 µM",,91.9%
Cn1nc(C(=O)NCC2(c3cccc(F)c3)CCCC2)ccc1=O [CBK281437],"viability at 28.5 h, 10 µM",,86.9%
CCNC(=O)N1CCC(NS(=O)(=O)c2cnc3ccccc3c2)C1 (stereo not shown) [CBK304419],"viability at 28.5 h, 10 µM",,85.3%
COc1cc(CN2CCC[C@@H]2CN2CCCC2)cc(OC)c1OC [CBK149100],"viability at 28.5 h, 10 µM",,105%
Cc1ccccc1NS(=O)(=O)c1cc(OCC(N)=O)c(C)cc1Cl [CBK266443],"viability at 28.5 h, 10 µM",,85.9%
CC#CC(=O)N1CCCC(Cc2ccc(F)cc2F)(C(=O)OCC)C1 (stereo not shown) [CBK307051],"viability at 28.5 h, 10 µM",,111%
O=C(O)c1cc(-c2ccccc2)oc1CSCCO [CBK286559],"viability at 28.5 h, 10 µM",,92.3%
C/C(=N\NC(=O)CC1(C)OCCO1)c1oc(C)cc1C [CBK022234],"viability at 28.5 h, 10 µM",,99.1%
Cc1ccccc1NC(=O)Cc1nc(CN2CCC3(CCOC3)C2)cs1 (stereo not shown) [CBK304164],"viability at 28.5 h, 10 µM",,95.5%
Cc1cc(C)c(OCCCN2CCCCCC2)c(Cl)c1 [CBK266026G],"viability at 28.5 h, 10 µM",,101%
Cn1cc(CCNC(=O)Nc2ccc(N3CCCC3)nc2)cn1 [CBK305659],"viability at 28.5 h, 10 µM",,92.3%
COCCCNC(=O)C1CCCN(c2nc3c(-c4ccccc4)csc3c(=O)[nH]2)C1 (stereo not shown) [CBK215498],"viability at 28.5 h, 10 µM",,94%
CCn1ncc(S(=O)(=O)N2CCCC(c3cccc(-c4cccc(OC)c4)n3)C2)c1C (stereo not shown) [CBK286155],"viability at 28.5 h, 10 µM",,96.8%
CCCNc1nccnc1-c1cc(C)c(O)c(C)c1 [CBK037210],"viability at 28.5 h, 10 µM",,87.6%
CC(Sc1nnc2[nH]c3ccccc3n12)C(=O)O (stereo not shown) [CBK265822],"viability at 28.5 h, 10 µM",,99.7%
O=C(CCOc1ccccc1)Nc1c(F)cc(F)cc1OC1CCNCC1 [CBK045897T],"viability at 28.5 h, 10 µM",,105%
Cc1ccn(CC(=O)N2CC[C@H]3NC(=O)COc4ccccc4CCCC[C@@H]3C2)c(=O)c1 [CBK292045],"viability at 28.5 h, 10 µM",,99.2%
O=C1NC(=S)NC(=O)C1=Cc1cn(-c2ccccc2)nc1-c1ccc(-c2ccc([N+](=O)[O-])cc2)o1 [CBK263149],"viability at 28.5 h, 10 µM","bulk resorufin, single well",107%
CCOC(=O)c1sc(NC(=O)c2ccccc2Br)nc1C [CBK067745],"viability at 28.5 h, 10 µM",,90.2%
Cc1cc(COC(=O)N2CCC(CO)CC2)cc(C)n1 [CBK200152],"viability at 28.5 h, 10 µM",,91%
CCOC(=O)Cc1csc(SC(C)C(=O)N2CCNC2=O)n1 (stereo not shown) [CBK304551],"viability at 28.5 h, 10 µM",,106%
NNC(=O)/C(=C\c1ccccc1)CCO [CBK261215],"viability at 28.5 h, 10 µM",,117%
